Earlier results on 1 compound are cited in patent US10344064B2, “Engineered potent cytotoxic stapled BH3 peptides” (The Trustees of Princeton University, priority 2012, dated 2019).

Some test systems named below: PC3; MCF7; HeLa; MDA231.
Common to all, as to settings: cisplatin, values from reference 33-36; cited from earlier work

In the case of `N.N.[Cl][Pt][Cl]` [Cisplatin, cisplatin], the IC50 was 5.6 µM in the series with PC3, 5 µM in the series with MCF7, 1.34 µM in the series with HeLa and about 10 µM with MDA231.
